We go through 18 compounds from US20240109900A1, “AZABICYCLIC SHP2 INHIBITORS” (IRBM S.P.A., priority 2021, published 2024).

SMILES strings stand for the structures. Read-outs that look alike come from different tables or passages of the source. Bounds are passed on as bounds.

The target of experiment [1] is SHP-2 enzyme (Met1-Leu525) (Homo sapiens (Human), UniProt Q06124). Kind of experiment: SHP2 inhibition enzymatic assay. Type of experiment: biochemical. As to conditions: 0.5 nM SHP-2 activated by 500 nM IRS1 peptide, 75 μM DiFMUP substrate; read-out: SHP2wt-IC50. In outline: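 SHP-2 (Met1-Leu525), 0.5 nM, activated with 500 nM IRS1 bis-phosphopeptide, preincubated 30 min with compounds in HEPES pH 7.2 buffer with 5 mM DTT. 75 μM DiFMUP added for 30 min at room temperature, stopped with bpV; fluorescence read. IC50 from four-parameter logistic fit of % inhibition.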
Sequence of SHP-2 enzyme (Met1-Leu525) (Q06124 1-525): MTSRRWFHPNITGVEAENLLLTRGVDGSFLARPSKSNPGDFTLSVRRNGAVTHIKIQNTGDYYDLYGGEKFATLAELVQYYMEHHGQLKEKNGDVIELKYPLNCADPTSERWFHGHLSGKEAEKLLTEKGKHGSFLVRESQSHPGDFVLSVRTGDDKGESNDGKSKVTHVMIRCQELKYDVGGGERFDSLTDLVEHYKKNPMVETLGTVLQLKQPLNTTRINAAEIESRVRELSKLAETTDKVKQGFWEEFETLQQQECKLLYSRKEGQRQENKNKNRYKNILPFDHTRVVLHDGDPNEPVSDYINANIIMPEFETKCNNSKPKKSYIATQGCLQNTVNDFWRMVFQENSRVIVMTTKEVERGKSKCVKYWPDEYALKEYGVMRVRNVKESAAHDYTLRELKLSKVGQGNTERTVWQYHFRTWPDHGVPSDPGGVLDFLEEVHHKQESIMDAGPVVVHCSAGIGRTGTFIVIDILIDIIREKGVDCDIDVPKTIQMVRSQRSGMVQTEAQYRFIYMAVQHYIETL

The subject of experiment [2] is ERK phosphorylation in KYSE-520 cells. The experiment in a line: Phospho-ERK cellular assay. Type of experiment: cell-based. As to conditions: KYSE-520 cells, 2 h at 37° C., phospho-ERK1/2 (Thr202/Tyr204) TR-FRET, read-out: PERK IC50. In outline: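 TR-FRET read-out of ERK1/2 Thr202/Tyr204 phosphorylation was taken after overnight antibody incubation at room temperature. Before that, KYSE-520 cells were treated 2 h at 37 °C with compound dilutions and lysed 30 min. Percent inhibition relative to vehicle and cell-free wells was fitted four-parametrically to give IC50.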
For orientation: In TR-FRET formats the signal depends on donor and acceptor labels being close together.

For the compound `COCc1cc(C2(CN)C3CCN(c4cnc5c(-c6ccc7nn(C)cc7c6Cl)n[nH]c5n4)CC32)no1` (stereo not drawn) [Example 47, (3-(3-(4-chloro-2-methyl-2H-indazol-5-yl)-1H-pyrazolo[3,4-b]pyrazin-6-yl)-7-(5-(methoxymethyl)isoxazol-3-yl)-3-azabicyclo[4.1.0]heptan-7-yl)methanamine], the IC50 was below 0.5 µM in experiment [1] and below 1 µM in experiment [2] (Homo sapiens, KYSE-520, 2 h).
`Cc1cc([C@@]2(CN)[C@@H]3CCN(c4cnc5c(-c6ccnc7c(F)cccc67)n[nH]c5n4)C[C@@H]32)no1` [Example 114, ((1S,6R,7S)-3-(3-(8-fluoroquinolin-4-yl)-1H-pyrazolo[3,4-b]pyrazin-6-yl)-7-(5-methylisoxazol-3-yl)-3-azabicyclo[4.1.0]heptan-7-yl)methanamine]: the concentration for half-maximal inhibition (IC50) was below 0.5 µM in experiment [1] and below 1 µM in experiment [2] (Homo sapiens, KYSE-520, 2 h).
The like results for `COc1cc2ccc(-c3n[nH]c4nc(N5CC[C@@H]6[C@H](C5)[C@@]6(CN)c5ccccc5F)cnc34)cc2nn1` [Example 262, ((1S,6R,7R)-7-(2-fluorophenyl)-3-(3-(3-methoxycinnolin-7-yl)-1H-pyrazolo[3,4-b]pyrazin-6-yl)-3-azabicyclo[4.1.0]heptan-7-yl)methanamine] were, in that order, below 0.5 µM and below 1 µM.
For `Cn1cc(C2(CN)C3CCN(c4cnc5c(-c6cccc(Cl)c6Cl)n[nH]c5n4)CC32)nn1` (stereo not drawn) [Example 13, (3-(3-(2,3-dichlorophenyl)-1H-pyrazolo[3,4-b]pyrazin-6-yl)-7-(1-methyl-1H-1,2,3-triazol-4-yl)-3-azabicyclo[4.1.0]heptan-7-yl)methanamine], in that order: below 0.5 µM and below 1 µM.
As to `NC[C@]1(c2ccccc2F)[C@@H]2CCN(c3cnc4c(-c5ccc6c(c5)ncn6C(F)F)n[nH]c4n3)C[C@@H]21` [Example 418], the IC50 in experiment [1] was below 0.5 µM; in experiment [2] it was below 1 µM.
On to `NC[C@]1(c2ccccc2F)[C@@H]2CCN(c3cnc4c(-c5ccn6nccc6c5Cl)n[nH]c4n3)C[C@@H]21` [Example 438, ((1S,6R,7R)-3-(3-(4-chloropyrazolo[1,5-a]pyridin-5-yl)-1H-pyrazolo[3,4-b]pyrazin-6-yl)-7-(2-fluorophenyl)-3-azabicyclo[4.1.0]heptan-7-yl)methanamine], for which the IC50 was below 0.5 µM in experiment [1] and below 1 µM in experiment [2] (Homo sapiens, KYSE-520, 2 h).
The like results for `NC[C@]1(c2ccccc2F)[C@@H]2CCN(c3cnc4c(-c5ccc(C(=O)NC6CC6)c6ncccc56)n[nH]c4n3)C[C@@H]21` [Example 279, 5-(6-((1S,6R,7R)-7-(aminomethyl)-7-(2-fluorophenyl)-3-azabicyclo[4.1.0]heptan-3-yl)-1H-pyrazolo[3,4-b]pyrazin-3-yl)-N-cyclopropylquinoline-8-carboxamide] were, in that order, below 0.5 µM and below 1 µM.
Turning to `COc1ncccc1-c1n[nH]c2nc(N3CCC4C(C3)C4(CN)c3cc(C)on3)cnc12` (stereo not drawn) [Example 28, (3-(3-(2-methoxypyridin-3-yl)-1H-pyrazolo[3,4-b]pyrazin-6-yl)-7-(5-methylisoxazol-3-yl)-3-azabicyclo[4.1.0]heptan-7-yl)methanamine], the IC50 is below 0.5 µM in experiment [1] and above 5 µM in experiment [2] (Homo sapiens, KYSE-520, 2 h).
For `Cn1cnc2c(Cl)c(-c3n[nH]c4nc(N5CC[C@@H]6[C@H](C5)[C@@]6(CN)c5ccccc5F)cnc34)ccc21` [Example 329, ((1S,6R,7R)-3-(3-(4-chloro-1-methyl-1H-benzo[d]imidazol-5-yl)-1H-pyrazolo[3,4-b]pyrazin-6-yl)-7-(2-fluorophenyl)-3-azabicyclo[4.1.0]heptan-7-yl)methanamine], in that order: below 0.5 µM and below 1 µM.
For `NC[C@]1(c2cc(F)ccc2F)[C@@H]2CCN(c3cnc(Sc4ccnc(C5CC5)c4Cl)c(N)n3)C[C@@H]21` [Example 430, 6-((1S,6R,7R)-7-(aminomethyl)-7-(2,5-difluorophenyl)-3-azabicyclo[4.1.0]heptan-3-yl)-3-((3-chloro-2-cyclopropylpyridin-4-yl)thio)pyrazin-2-amine], in that order: below 0.5 µM and below 1 µM.
The like results for `Cc1csc([C@@]2(CN)[C@@H]3CN(c4cnc5nc(Sc6ccnc(N)c6Cl)ccc5n4)C[C@@H]32)n1` [Example 497, 4-((2-((1R,5S,6r)-6-(aminomethyl)-6-(4-methylthiazol-2-yl)-3-azabicyclo[3.1.0]hexan-3-yl)pyrido[2,3-b]pyrazin-6-yl)thio)-3-chloropyridin-2-amine] were, in that order, below 0.5 µM and below 1 µM.
For `Cc1csc([C@@]2(CN)[C@@H]3CN(c4cnc5c(-c6ccc7nn(C)cc7c6Cl)n[nH]c5n4)C[C@@H]32)n1` [Example 457, ((1R,5S,6r)-3-(3-(4-chloro-2-methyl-2H-indazol-5-yl)-1H-pyrazolo[3,4-b]pyrazin-6-yl)-6-(4-methylthiazol-2-yl)-3-azabicyclo[3.1.0]hexan-6-yl)methanamine], the IC50 in experiment [1] is below 0.5 µM; in experiment [2] (Homo sapiens, KYSE-520, 2 h), below 1 µM.
Take `NC[C@]1(c2ccccc2F)[C@@H]2CCN(c3cnc4c(-c5ccc6nccc(N)c6c5)n[nH]c4n3)C[C@@H]21` [Example 258, 6-(6-((1S,6R,7R)-7-(aminomethyl)-7-(2-fluorophenyl)-3-azabicyclo[4.1.0]heptan-3-yl)-1H-pyrazolo[3,4-b]pyrazin-3-yl)quinolin-4-amine]: the IC50 is below 0.5 µM in experiment [1] and above 5 µM in experiment [2] (Homo sapiens, KYSE-520, 2 h).
The like results for `CCn1cc2c(Cl)c(-c3n[nH]c4nc(N5CC[C@@H]6[C@H](C5)[C@@]6(CN)c5ccccc5F)cnc34)ccc2n1` [Example 208, ((1S,6R,7R)-3-(3-(4-chloro-2-ethyl-2H-indazol-5-yl)-1H-pyrazolo[3,4-b]pyrazin-6-yl)-7-(2-fluorophenyl)-3-azabicyclo[4.1.0]heptan-7-yl)methanamine] were, in that order, below 0.5 µM and below 1 µM.
For `NC[C@]1(c2ccccc2F)[C@@H]2CCN(c3cnc4c(-c5cc(C(N)=O)ccc5Cl)n[nH]c4n3)C[C@@H]21` [Example 281, 3-(6-((1S,6R,7R)-7-(aminomethyl)-7-(2-fluorophenyl)-3-azabicyclo[4.1.0]heptan-3-yl)-1H-pyrazolo[3,4-b]pyrazin-3-yl)-4-chlorobenzamide], in that order: below 0.5 µM and above 5 µM.
The like results for `Cc1csc(C2(CN)C3CCN(c4cnc5c(-c6cccnc6C(F)(F)F)n[nH]c5n4)CC32)n1` (stereo not drawn) [Example 90, (7-(4-methylthiazol-2-yl)-3-(3-(2-(trifluoromethyl)pyridin-3-yl)-1H-pyrazolo[3,4-b]pyrazin-6-yl)-3-azabicyclo[4.1.0]heptan-7-yl)methanamine] were, in that order, below 0.5 µM and below 1 µM.
Consider `NC[C@]1(c2ccccc2)[C@@H]2CN(c3cnc4c(-c5cccc(Cl)c5Cl)n[nH]c4n3)C[C@@H]21` [Example 452, ((1R,5S,6s)-3-(3-(2,3-dichlorophenyl)-1H-pyrazolo[3,4-b]pyrazin-6-yl)-6-phenyl-3-azabicyclo[3.1.0]hexan-6-yl)methanamine], for which the IC50 in experiment [1] was below 0.5 µM; in experiment [2] (Homo sapiens, KYSE-520, 2 h), below 1 µM.
In the case of `Cc1csc([C@@]2(CN)[C@@H]3CN(c4cnc5c(-c6ccc7nn(C8CC8)cc7c6Cl)n[nH]c5n4)C[C@@H]32)n1` [Example 528], the IC50 in experiment [1] was below 0.5 µM; in experiment [2], below 1 µM.

The term IC50 denotes the point on the concentration scale where inhibition reaches its midpoint.
